For one assay, the system named is NCI-H2228. As to the kind of experiment: Antitumor activity against EML4-ALK fusion protein harboring human NCI-H2228 cells xenografted in NOD/SCID mouse assessed as inhibition of tumor growth at 1 mg/kg, po dosed once daily for 14 days starting 3 weeks of tumor cell inoculation and measured every other day relative to untreated control. Type of assay: functional.

Assay [1] addresses ALK tyrosine kinase receptor (Homo sapiens) (UniProt Q9UM73). The conditions noted are these: 5 nM.
Description: Inhibition of N-terminal GST-tagged human ALK cytoplasmic domain (1058 to 1620 amino acids) expressed in baculovirus expression system at 5 nM relative to control
Assay [2] in a line: Antitumor activity against mouse NIH-3T3/EML4-ALK cells implanted in Balb/c mouse assessed as inhibition of tumor growth at 10 mg/kg, po dosed once daily for 5 days and measured every other day relative to untreated control. The format is functional. The note with it: NIH3T3, po, 120 h, read-out: TGI.
The target in assay [3] is EML4-ALK (Homo sapiens, UniProt Q9UM73+Q9HC35). As to the kind of experiment: Inhibition of recombinant FLAG-tagged EML4-ALK fusion protein (unknown origin) expressed in mouse BA/F3 cells assessed as inhibition of cell growth incubated for 2 days by alamar blue dye based assay.
Assay [4] deals with EML4-ALK (Homo sapiens, UniProt Q9UM73). As to the kind of experiment: Inhibition of recombinant FLAG-tagged EML4-ALK fusion protein (unknown origin) expressed in mouse BA/F3 cells using peptide substrate and ATP incubated for 1 hr by HTRF assay.

Calls of active or inactive are those of the source. The rule behind the calls is not given here.

Chain of EML4-ALK (Homo sapiens, UniProt Q9UM73) (Q9UM73 whole entry, the tested form may be a part): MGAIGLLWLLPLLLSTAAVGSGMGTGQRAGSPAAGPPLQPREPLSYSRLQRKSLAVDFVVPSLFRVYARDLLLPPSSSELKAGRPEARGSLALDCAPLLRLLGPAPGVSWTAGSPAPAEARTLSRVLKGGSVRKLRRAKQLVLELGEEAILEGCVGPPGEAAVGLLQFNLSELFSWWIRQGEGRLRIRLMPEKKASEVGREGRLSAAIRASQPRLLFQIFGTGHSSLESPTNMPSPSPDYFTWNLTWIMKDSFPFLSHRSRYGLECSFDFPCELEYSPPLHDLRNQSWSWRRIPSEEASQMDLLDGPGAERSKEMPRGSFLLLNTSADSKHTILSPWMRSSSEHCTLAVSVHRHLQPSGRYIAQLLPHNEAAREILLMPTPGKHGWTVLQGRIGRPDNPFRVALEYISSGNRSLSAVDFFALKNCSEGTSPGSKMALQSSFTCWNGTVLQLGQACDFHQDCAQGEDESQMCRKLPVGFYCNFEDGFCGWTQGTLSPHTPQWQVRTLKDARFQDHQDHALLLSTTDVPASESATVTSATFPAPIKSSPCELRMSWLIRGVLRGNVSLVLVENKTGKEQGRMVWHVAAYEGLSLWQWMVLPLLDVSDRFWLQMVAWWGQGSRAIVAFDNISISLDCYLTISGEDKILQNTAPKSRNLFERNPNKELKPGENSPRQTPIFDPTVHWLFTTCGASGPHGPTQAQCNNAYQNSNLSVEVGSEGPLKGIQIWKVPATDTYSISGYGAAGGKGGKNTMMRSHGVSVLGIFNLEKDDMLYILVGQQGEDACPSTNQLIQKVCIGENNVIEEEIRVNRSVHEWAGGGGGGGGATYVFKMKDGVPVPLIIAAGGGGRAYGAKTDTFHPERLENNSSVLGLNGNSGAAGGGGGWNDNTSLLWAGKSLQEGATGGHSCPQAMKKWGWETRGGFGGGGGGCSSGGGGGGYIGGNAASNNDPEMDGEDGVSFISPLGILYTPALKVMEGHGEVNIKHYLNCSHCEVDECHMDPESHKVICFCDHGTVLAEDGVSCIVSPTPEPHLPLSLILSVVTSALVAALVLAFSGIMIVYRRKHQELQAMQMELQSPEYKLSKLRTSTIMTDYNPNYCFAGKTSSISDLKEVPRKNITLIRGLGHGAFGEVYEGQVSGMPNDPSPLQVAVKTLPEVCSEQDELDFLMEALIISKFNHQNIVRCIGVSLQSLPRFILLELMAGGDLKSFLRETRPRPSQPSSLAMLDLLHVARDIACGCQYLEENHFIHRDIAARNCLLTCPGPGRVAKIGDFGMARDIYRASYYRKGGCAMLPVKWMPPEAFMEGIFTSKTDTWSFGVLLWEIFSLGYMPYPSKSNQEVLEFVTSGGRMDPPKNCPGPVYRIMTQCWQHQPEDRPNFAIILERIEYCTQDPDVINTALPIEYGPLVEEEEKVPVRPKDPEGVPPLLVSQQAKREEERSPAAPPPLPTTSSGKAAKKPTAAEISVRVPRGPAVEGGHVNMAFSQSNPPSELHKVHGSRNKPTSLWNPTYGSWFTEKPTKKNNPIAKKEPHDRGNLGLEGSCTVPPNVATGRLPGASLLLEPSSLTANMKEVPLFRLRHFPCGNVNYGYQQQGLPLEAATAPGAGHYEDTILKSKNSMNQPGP
Chain of EML4-ALK (Homo sapiens, UniProt Q9UM73) (Q9HC35 whole entry, further chain, the tested form may be a part): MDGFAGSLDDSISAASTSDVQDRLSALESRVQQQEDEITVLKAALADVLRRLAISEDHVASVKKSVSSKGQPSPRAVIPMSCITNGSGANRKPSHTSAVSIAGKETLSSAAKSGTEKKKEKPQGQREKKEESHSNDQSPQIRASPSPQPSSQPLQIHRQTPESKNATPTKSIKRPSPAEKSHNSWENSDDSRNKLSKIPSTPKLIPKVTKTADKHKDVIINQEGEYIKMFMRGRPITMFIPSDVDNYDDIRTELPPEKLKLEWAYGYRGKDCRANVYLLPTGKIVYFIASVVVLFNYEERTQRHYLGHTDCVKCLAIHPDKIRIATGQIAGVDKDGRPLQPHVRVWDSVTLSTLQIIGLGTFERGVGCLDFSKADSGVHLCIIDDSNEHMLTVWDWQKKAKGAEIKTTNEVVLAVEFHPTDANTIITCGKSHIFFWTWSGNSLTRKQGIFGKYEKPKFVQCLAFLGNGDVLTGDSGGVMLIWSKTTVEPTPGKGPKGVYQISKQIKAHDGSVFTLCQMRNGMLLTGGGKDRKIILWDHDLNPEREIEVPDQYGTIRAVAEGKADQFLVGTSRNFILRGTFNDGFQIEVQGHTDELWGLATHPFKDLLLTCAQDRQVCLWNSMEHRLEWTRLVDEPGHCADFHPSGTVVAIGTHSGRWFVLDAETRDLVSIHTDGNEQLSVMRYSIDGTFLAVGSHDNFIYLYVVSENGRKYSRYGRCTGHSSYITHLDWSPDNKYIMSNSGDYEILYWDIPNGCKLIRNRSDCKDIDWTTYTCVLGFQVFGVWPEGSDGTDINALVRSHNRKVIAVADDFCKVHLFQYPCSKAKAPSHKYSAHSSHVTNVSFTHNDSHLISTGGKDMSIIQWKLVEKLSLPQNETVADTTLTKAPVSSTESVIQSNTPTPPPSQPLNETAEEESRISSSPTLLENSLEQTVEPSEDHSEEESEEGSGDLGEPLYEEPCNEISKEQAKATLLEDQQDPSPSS
Chain of ALK tyrosine kinase receptor (Homo sapiens) (Q9UM73 19-1620 limits assumed): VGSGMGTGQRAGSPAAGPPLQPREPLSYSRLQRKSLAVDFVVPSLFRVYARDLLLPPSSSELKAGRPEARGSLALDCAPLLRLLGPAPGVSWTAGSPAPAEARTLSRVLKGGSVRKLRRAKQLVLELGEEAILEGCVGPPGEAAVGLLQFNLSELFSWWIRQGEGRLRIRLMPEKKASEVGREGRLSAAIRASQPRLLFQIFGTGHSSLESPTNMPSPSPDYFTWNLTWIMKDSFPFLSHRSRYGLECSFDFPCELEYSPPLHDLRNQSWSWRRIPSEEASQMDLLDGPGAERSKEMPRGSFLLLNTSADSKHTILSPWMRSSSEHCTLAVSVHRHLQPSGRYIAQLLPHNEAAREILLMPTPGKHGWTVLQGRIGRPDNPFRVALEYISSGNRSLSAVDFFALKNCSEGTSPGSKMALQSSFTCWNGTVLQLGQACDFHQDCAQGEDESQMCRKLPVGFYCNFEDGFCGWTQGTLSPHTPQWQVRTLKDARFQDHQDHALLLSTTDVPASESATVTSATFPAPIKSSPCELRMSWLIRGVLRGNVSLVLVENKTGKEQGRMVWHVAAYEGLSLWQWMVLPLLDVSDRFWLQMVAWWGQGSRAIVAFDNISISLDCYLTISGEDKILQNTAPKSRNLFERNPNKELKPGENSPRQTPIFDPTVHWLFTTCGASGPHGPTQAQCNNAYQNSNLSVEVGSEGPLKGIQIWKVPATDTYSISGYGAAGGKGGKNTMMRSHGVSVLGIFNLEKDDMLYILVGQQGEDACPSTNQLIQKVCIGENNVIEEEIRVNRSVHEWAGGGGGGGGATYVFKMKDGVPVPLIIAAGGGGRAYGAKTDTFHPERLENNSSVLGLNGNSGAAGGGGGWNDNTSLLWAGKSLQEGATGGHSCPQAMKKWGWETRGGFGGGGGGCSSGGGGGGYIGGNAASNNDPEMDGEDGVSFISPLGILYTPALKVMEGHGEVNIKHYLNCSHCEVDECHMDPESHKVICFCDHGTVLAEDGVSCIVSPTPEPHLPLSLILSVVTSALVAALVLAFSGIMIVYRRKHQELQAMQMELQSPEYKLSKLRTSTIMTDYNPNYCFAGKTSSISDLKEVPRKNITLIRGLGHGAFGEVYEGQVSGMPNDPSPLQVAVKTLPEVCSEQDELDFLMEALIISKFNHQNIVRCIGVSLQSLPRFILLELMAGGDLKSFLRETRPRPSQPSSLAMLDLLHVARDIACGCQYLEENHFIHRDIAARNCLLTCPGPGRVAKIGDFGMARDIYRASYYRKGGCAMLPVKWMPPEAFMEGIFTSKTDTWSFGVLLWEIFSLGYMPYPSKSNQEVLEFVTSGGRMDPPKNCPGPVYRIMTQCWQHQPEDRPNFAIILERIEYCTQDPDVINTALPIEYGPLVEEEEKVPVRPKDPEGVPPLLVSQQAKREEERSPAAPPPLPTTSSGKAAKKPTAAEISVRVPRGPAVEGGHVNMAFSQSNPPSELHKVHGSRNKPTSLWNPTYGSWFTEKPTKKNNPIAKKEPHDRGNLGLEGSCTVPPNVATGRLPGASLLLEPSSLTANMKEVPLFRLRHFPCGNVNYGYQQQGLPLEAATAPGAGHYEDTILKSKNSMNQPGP
Chain of EML4-ALK (Homo sapiens, UniProt Q9UM73+Q9HC35) (Q9UM73 whole entry, the tested form may be a part): as the sequence (Q9UM73 whole entry, the tested form may be a part) above
Chain of EML4-ALK (Homo sapiens, UniProt Q9UM73+Q9HC35) (Q9HC35 whole entry, the tested form may be a part): as the sequence (Q9HC35 whole entry, further chain, the tested form may be a part) above

In the case of `CC(C)c1nc(C(N)=O)c(Nc2ccc(N3CCC(N4CCN(C)CC4)CC3)cc2)nc1NC1CCOCC1`, the inhibition in vivo at 1 mg/kg in the assay on NCI-H2228 (read-out: TGI) was determined as 69%. In assay [1], this compound gave an inhibition greater than 50%. Consider `Cc1cc(Nc2nc(N[C@H]3CC[C@H](O)CC3)c(Cl)nc2C(N)=O)ccc1N1CCC(N2CCN(C)CC2)CC1`, for which, in assay [1], the inhibition was greater than 50%.

`CCc1nc(C(N)=O)c(Nc2ccc(N3CCC(N4CCN(C)CC4)CC3)c(C(F)(F)F)c2)nc1N[C@H]1CC[C@H](O)CC1` showed an inhibition in assay [1] greater than 50%. Besides, the inhibition in vivo at 10 mg/kg in assay [2] worked out at 81%. As to `CCc1nc(C(N)=O)c(Nc2ccc(N3CCN(C4CCN(C)CC4)CC3)c(C)c2)nc1NC1CCOCC1`, the inhibition in assay [1] was greater than 50%.

`CCc1nc(C(N)=O)c(Nc2ccc(N3CCN(C)CC3)c(F)c2)nc1NC1CCOCC1`: the inhibition in assay [1] is greater than 50%. Regarding `NC(=O)c1cnc(N[C@@H]2CCCC[C@@H]2N)nc1Nc1ccc(-c2ccc(N3CCOCC3)cc2)cc1` (racemic), in the assay with NCI-H2228, the TGI entry was “inactive”. Regarding `CCc1nc(C(N)=O)c(Nc2ccc3cnn(C)c3c2)nc1N[C@H]1CC[C@H](O)CC1`, the half-maximal inhibitory concentration (IC50) on EML4-ALK [3] stood at 76 nM. As to `CCc1nc(C(N)=O)c(Nc2cccc(C)c2)nc1NCCN(C)C`, the TGI entry in the assay on NCI-H2228 was “inactive”. `CCc1nc(C(N)=O)c(Nc2ccc(N3CCC(N4CCN(C)CC4)CC3)c(C)c2)nc1N[C@H]1CC[C@@](C)(O)CC1` came in with an inhibition in assay [1] greater than 50%. `CCc1nc(C(N)=O)c(Nc2ccc(N3CCC(N4CCN(C)CC4)CC3)cc2)nc1NC1CCOCC1` gave an inhibition in assay [1] greater than 50%. In assay [2], the inhibition in vivo at 10 mg/kg came to 79%.

In assay [1], `COc1cc(Nc2nc(NC3CCOCC3)c(C(C)C)nc2C(N)=O)ccc1N1CCN(C)CC1` yielded an inhibition greater than 50%. Also, the inhibition in vivo at 10 mg/kg in assay [2] was found to be 63%.

`CCc1nc(C(N)=O)c(Nc2ccc(N3CCC(N4CCN(C)CC4)CC3)c(C)c2)nc1NC1CCOCC1`: the inhibition in assay [1] was greater than 50%.

The compound `CCc1nc(C(N)=O)c(Nc2ccc(N3CCC(N4CCN(C)CC4)CC3)c(C)c2)nc1N[C@H]1CC[C@](C)(O)CC1` returned an inhibition in assay [1] greater than 50%. In assay [1], `CC(C)c1nc(C(N)=O)c(Nc2ccc(N3CCN(C)CC3)cc2)nc1N[C@H]1CC[C@H](O)CC1` came in with an inhibition greater than 50%. `CCc1nc(C(N)=O)c(Nc2ccc(N3CCC(N4CCN(C)CC4)CC3)c(C)c2)nc1N[C@H]1CC[C@](O)(C(C)C)CC1`: the IC50 on EML4-ALK [4] is 2.6 nM. Compound `CCc1nc(C(N)=O)c(Nc2ccc(N3CCN(C)CC3)cc2)nc1N[C@H]1CC[C@H](O)CC1` returned an inhibition in assay [1] greater than 50%. As for `CCc1nc(C(N)=O)c(Nc2ccc(N3CCC(N4CCN(C)CC4)CC3)c(OC)c2)nc1NC1CCOCC1`, in assay [1], the inhibition is greater than 50%. In assay [1], `CCc1nc(C(N)=O)c(Nc2ccc(N3CCN(C(C)C)CC3)c(C)c2)nc1N[C@H]1CC[C@H](O)CC1` returned an inhibition greater than 50%. Moreover, the inhibition in vivo at 10 mg/kg in assay [2] amounted to 81%. `CCc1nc(C(N)=O)c(Nc2ccc(N3CCC(N4CCN(C)CC4)CC3)cc2)nc1N[C@H]1CC[C@H](O)CC1`: the inhibition in assay [1] was greater than 50%. Take `CCc1nc(C(N)=O)c(Nc2ccc(N3CCC(N4CCN(C)CC4)CC3)c(C)c2)nc1N[C@H]1CC[C@](O)(CC)CC1`: the IC50 at EML4-ALK [4] came to 3.1 nM. On the same count and under the same terms, the result for `CCc1nc(C(N)=O)c(Nc2ccc(N3CCC(N4CCN(C)CC4)CC3)c(C)c2)nc1N[C@H]1CC[C@@](O)(C(C)C)CC1` reads 4.1 nM. Take `CC(C)c1nc(C(N)=O)c(Nc2ccc(N3CCC(N4CCN(C)CC4)CC3)c(C(F)(F)F)c2)nc1N[C@H]1CC[C@H](O)CC1`: the inhibition in assay [1] was greater than 50%. Compound `CCc1nc(C(N)=O)c(Nc2ccc(N3CCC(N4CCN(C)CC4)CC3)c(C)c2)nc1N[C@H]1CC[C@H](O)CC1` registered an inhibition in assay [1] greater than 50%. The inhibition in vivo at 10 mg/kg in assay [2] came out at 92%. On to `CCc1nc(C(N)=O)c(Nc2ccc(N3CCC(N4CCN(C)CC4)CC3)c(C)c2)nc1N[C@H]1CC[C@@](O)(CC)CC1`, for which, on EML4-ALK [4], the IC50 was determined as 2.8 nM.

For `CC(C)c1nc(C(N)=O)c(Nc2ccc(N3CCN(C)CC3)cc2)nc1NC1CCOCC1`, the inhibition in assay [1] is greater than 50%.
